This note sets out measurements from US9661854B2, “Molecules having pesticidal utility, and intermediates, compositions, and processes, related thereto” (Dow AgroSciences LLC, priority 2015, dated 2017).

Assay [1] has as its system Beet Armyworm (Spodoptera exigua, LAPHEG). The assay can be described thus: Bioassay on Beet Armyworm (BAW), 128-well diet tray assay. It is filed as in vivo. To be noted: 168 h, 50 μg/cm^2 on artificial diet, second instar larvae, 25° C., five to seven days, average of eight wells, read-out: BAW % Control (or Mortality) rating. The protocol:
(§1) Example A: Bioassays on Beet Armyworm (Spodoptera exigua, LAPHEG) (“BAW”) and Cabbage Looper (Trichoplusia ni, TRIPNI) (“CL”)
(§2) Certain molecules disclosed in this document were tested against BAW and CL using procedures described in the following examples. In the reporting of the results, the “BAW & CL Rating Table” was used (See Table Section).
Bioassays on BAW were conducted using a 128-well diet tray assay. One to five second instar BAW larvae were placed in each well (3 mL) of the diet tray that had been previously filled with 1 mL of artificial diet to which 50 μg/cm^2 of the test molecule (dissolved in 50 μL of 90:10 acetone-water mixture) had been applied (to each of eight wells) and then allowed to dry. Trays were covered with a clear self-adhesive cover, vented to allow gas exchange, and held at 25° C., 14:10 light-dark for five to seven days. Percent mortality was recorded for the larvae in each well; activity in the eight wells was then averaged. The results are indicated in the table entitled “Table ABC: Biological Results” (See Table Section).

Assay [2] concerns Cabbage Looper (Trichoplusia ni, TRIPNI). The assay can be described thus: Bioassay on Cabbage Looper (CL), 128-well diet tray assay. It is filed as in vivo. Particulars: 168 h, 50 μg/cm^2 on artificial diet, second instar larvae, 25° C., five to seven days, average of eight wells, read-out: CL % Control (or Mortality) rating. The protocol:
as §1, §2
Bioassays on CL were conducted using a 128-well diet tray assay. One to five second instar CL larvae were placed in each well (3 mL) of the diet tray that had been previously filled with 1 mL of artificial diet to which 50 μg/cm^2 of the test molecule (dissolved in 50 μL of 90:10 acetone-water mixture) had been applied (to each of eight wells) and then allowed to dry. Trays were covered with a clear self-adhesive cover, vented to allow gas exchange, and held at 25° C., 14:10 light-dark for five to seven days. Percent mortality was recorded for the larvae in each well; activity in the eight wells was then averaged. The results are indicated in the table entitled “Table ABC: Biological Results” (See Table Section).

For orientation: mortality means the percentage killed. With `Cc1ccc(C(C)C)c(N2C(=O)CS/C2=N\C(=O)Nc2ccc(CCc3ncn(-c4ccc(OC(F)(F)F)cc4)n3)cn2)c1` [F32, (Z)-1-(3-(2-Isopropyl-5-methylphenyl)-4-oxothiazolidin-2-ylidene)-3-(5-(2-(1-(4-(trifluoromethoxy)phenyl)-1H-1,2,4-triazol-3-yl)ethyl)pyridin-2-yl)urea], the mortality at 50 µg/cm2 in assay [1] and in assay [2] was 50 to 100% throughout.

Consider `COC(C)c1ccc(C)cc1N1C(=O)CS/C1=N\C(=O)Nc1ccc(CCc2ncn(-c3ccc(OC(F)(F)F)cc3)n2)cc1` (centres unmarked) [F31, (Z)-1-(3-(2-(1-Methoxyethyl)-5-methylphenyl)-4-oxothiazolidin-2-ylidene)-3-(4-(2-(1-(4-(trifluoromethoxy)phenyl)-1H-1,2,4-triazol-3-yl)ethyl)phenyl)urea], for which the mortality at 50 µg/cm2 in assay [1] and in assay [2] was 50 to 100% in each case.

Regarding `Cc1ccc(C(C)C)c(N2C(=O)CS/C2=N\C(=O)Nc2ccc(CCc3ncn(-c4ccc(OC(F)(F)F)cc4)n3)cc2C(F)(F)F)c1` [F25, (Z)-1-(3-(2-Isopropyl-5-methylphenyl)-4-oxothiazolidin-2-ylidene)-3-(4-(2-(1-(4-(trifluoromethoxy)phenyl)-1H-1,2,4-triazol-3-yl)ethyl)-2-(trifluoromethyl)phenyl)urea], the mortality at 50 µg/cm2 in assay [1] and in assay [2] was 50 to 100% in each case.

For the compound `Cc1ccc(C(C)C)c(N2C(=O)CS/C2=N\C(=O)Nc2ccc(/C=C/c3ncn(-c4ccc(OC(F)(F)F)cn4)n3)cc2)c1` [F69, 1-((Z)-3-(2-isopropyl-5-methylphenyl)-4-oxothiazolidin-2-ylidene)-3-(4-((E)-2-(1-(5-(trifluoromethoxy)pyridin-2-yl)-1H-1,2,4-triazol-3-yl)vinyl)phenyl)urea], the mortality at 50 µg/cm2 in assay [1] and in assay [2] was 50 to 100% throughout.

Turning to `Cc1ccc(C(C)C)c(N2C(=O)CS/C2=N\C(=O)Nc2ccc(CCc3ncn(-c4ccc(OC(F)(F)F)cc4)n3)cc2F)c1` [F17, (Z)-1-(2-Fluoro-4-(2-(1-(4-(trifluoromethoxy)phenyl)-1H-1,2,4-triazol-3-yl)ethyl)phenyl)-3-(3-(2-isopropyl-5-methylphenyl)-4-oxothiazolidin-2-ylidene)urea], the mortality at 50 µg/cm2 in assay [1] and in assay [2] was 50 to 100% each time.

In the case of `CC(C)c1ccc(C(F)(F)F)cc1N1C(=O)CS/C1=N\C(=O)Nc1ccc(CCc2ncn(-c3ccc(OC(F)(F)F)cc3)n2)cc1F` [F27, (Z)-1-(2-Fluoro-4-(2-(1-(4-(trifluoromethoxy)phenyl)-1H-1,2,4-triazol-3-yl)ethyl)phenyl)-3-(3-(2-isopropyl-5-(trifluoromethyl)phenyl)-4-oxothiazolidin-2-ylidene)urea], the mortality at 50 µg/cm2 in assay [1] and in assay [2] was 50 to 100% in each case.

Regarding `O=C(/N=C1\SCC(=O)N1c1cccnc1)Nc1ccc(CCc2ncn(-c3ccc(OC(F)(F)F)cc3)n2)cc1` [F75, (Z)-1-(4-Oxo-3-(pyridin-3-yl)thiazolidin-2-ylidene)-3-(4-(2-(1-(4-(trifluoromethoxy)phenyl)-1H-1,2,4-triazol-3-yl)ethyl)phenyl)urea], the mortality at 50 µg/cm2 in assay [1] and in assay [2] was 50 to 100% each time.

Consider `Cc1cc(N2C(=O)CS/C2=N\C(=O)Nc2ccc(/C=C/c3ncn(-c4ccc(OC(F)(F)F)cc4)n3)cc2)c(C(C)C)cc1F` [F47, 1-((Z)-3-(4-Fluoro-2-isopropyl-5-methylphenyl)-4-oxothiazolidin-2-ylidene)-3-(4-((E)-2-(1-(4-(trifluoromethoxy)phenyl)-1H-1,2,4-triazol-3-yl)vinyl)phenyl)urea], for which the mortality at 50 µg/cm2 in assay [1] and in assay [2] was 50 to 100% throughout.

On to `COc1ccc(C)cc1N1C(=O)CS/C1=N\C(=O)Nc1ccc(/C=C/c2ncn(-c3ccc(OC(F)(F)F)cc3)n2)cc1` [F42, 1-((Z)-3-(2-Methoxy-5-methylphenyl)-4-oxothiazolidin-2-ylidene)-3-(4-((E)-2-(1-(4-(trifluoromethoxy)phenyl)-1H-1,2,4-triazol-3-yl)vinyl)phenyl)urea], for which the mortality at 50 µg/cm2 in assay [1] and in assay [2] was 50 to 100% each time.

Take `COCc1ccc(C)cc1N1C(=O)CS/C1=N\C(=O)Nc1ccc(/C=C/c2ncn(-c3ccc(OC(F)(F)F)cc3)n2)cc1` [F53, 1-((Z)-3-(2-(Methoxymethyl)-5-methylphenyl)-4-oxothiazolidin-2-ylidene)-3-(4-((E)-2-(1-(4-(trifluoromethoxy)phenyl)-1H-1,2,4-triazol-3-yl)vinyl)phenyl)urea]: the mortality at 50 µg/cm2 in assay [1] and in assay [2] was 50 to 100% in each case.

As for `Cc1ccc(F)c(N2C(=O)CS/C2=N\C(=O)Nc2ccc(CCc3ncn(-c4ccc(OC(F)(F)F)cc4)n3)cc2)c1` [F3, (Z)-1-(3-(2-Fluoro-5-methylphenyl)-4-oxothiazolidin-2-ylidene)-3-(4-(2-(1-(4-(trifluoromethoxy)phenyl)-1H-1,2,4-triazol-3-yl)ethyl)phenyl)urea], the mortality at 50 µg/cm2 in assay [1] and in assay [2] was 50 to 100% throughout.

For the compound `Cc1ccc(C(C)C)c(N2C(=O)CS/C2=N\C(=O)Nc2ccc(CCc3ncn(-c4ccc(OC(F)(F)F)cn4)n3)cc2)c1` [F74, (Z)-1-(3-(2-Isopropyl-5-methylphenyl)-4-oxothiazolidin-2-ylidene)-3-(4-(2-(1-(5-(trifluoromethoxy)pyridin-2-yl)-1H-1,2,4-triazol-3-yl)ethyl)phenyl)urea], the mortality at 50 µg/cm2 in assay [1] and in assay [2] was 50 to 100% throughout.

Consider `Cc1ccc(C2CC2(F)F)c(N2C(=O)CS/C2=N\C(=O)Nc2ccc(CCc3ncn(-c4ccc(OC(F)(F)F)cc4)n3)cc2)c1` (centres unmarked) [F28, (Z)-1-(3-(2-(2,2-Difluorocyclopropyl)-5-methylphenyl)-4-oxothiazolidin-2-ylidene)-3-(4-(2-(1-(4-(trifluoromethoxy)phenyl)-1H-1,2,4-triazol-3-yl)ethyl)phenyl)urea], for which the mortality at 50 µg/cm2 in assay [1] and in assay [2] was 50 to 100% throughout.

For the compound `CCOc1ccc(C)cc1N1C(=O)CS/C1=N\C(=O)Nc1ccc(/C=C/c2ncn(-c3ccc(OC(F)(F)F)cc3)n2)cc1` [F46, 1-((Z)-3-(2-Ethoxy-5-methylphenyl)-4-oxothiazolidin-2-ylidene)-3-(4-((E)-2-(1-(4-(trifluoromethoxy)phenyl)-1H-1,2,4-triazol-3-yl)vinyl)phenyl)urea], the mortality at 50 µg/cm2 in assay [1] and in assay [2] was 50 to 100% throughout.

Consider `CCCc1ccc(C)cc1N1C(=O)CS/C1=N\C(=O)Nc1ccc(/C=C/c2ncn(-c3ccc(OC(F)(F)F)cc3)n2)cc1` [F45, 1-((Z)-3-(5-Methyl-2-propylphenyl)-4-oxothiazolidin-2-ylidene)-3-(4-((E)-2-(1-(4-(trifluoromethoxy)phenyl)-1H-1,2,4-triazol-3-yl)vinyl)phenyl)urea], for which the mortality at 50 µg/cm2 in assay [1] and in assay [2] was 50 to 100% throughout.

On to `CCCc1ccc(C)cc1N1C(=O)CS/C1=N\C(=O)Nc1ccc(/C=C/c2ncn(-c3ccc(OC(F)(F)F)cc3)n2)cc1F` [F63, 1-(2-Fluoro-4-((E)-2-(1-(4-(trifluoromethoxy)phenyl)-1H-1,2,4-triazol-3-yl)vinyl)phenyl)-3-((Z)-3-(5-methyl-2-propylphenyl)-4-oxothiazolidin-2-ylidene)urea], for which the mortality at 50 µg/cm2 in assay [1] and in assay [2] was 50 to 100% each time.

Take `CCC(C)Oc1ccc(C)cc1N1C(=O)CS/C1=N\C(=O)Nc1ccc(CCc2ncn(-c3ccc(OC(F)(F)F)cc3)n2)cc1` (centres unmarked) [F10, (Z)-1-(3-(2-(sec-Butoxy)-5-methylphenyl)-4-oxothiazolidin-2-ylidene)-3-(4-(2-(1-(4-(trifluoromethoxy)phenyl)-1H-1,2,4-triazol-3-yl)ethyl)phenyl)urea]: the mortality at 50 µg/cm2 in assay [1] and in assay [2] was 50 to 100% in each case.

As for `Cc1ccc(C(C)C)c(N2C(=O)CS/C2=N\C(=O)Nc2ccc(/C=C/c3ncn(-c4ccc(OC(F)(F)F)cc4)n3)cc2C(F)(F)F)c1` [F62, 1-((Z)-3-(2-isopropyl-5-methylphenyl)-4-oxothiazolidin-2-ylidene)-3-(4-((E)-2-(1-(4-(trifluoromethoxy)phenyl)-1H-1,2,4-triazol-3-yl)vinyl)-2-(trifluoromethyl)phenyl)urea], the mortality at 50 µg/cm2 in assay [1] and in assay [2] was 50 to 100% each time.

For `Cc1ccc(C(C)C)c(N2C(=O)CS/C2=N\C(=O)Nc2ccc(/C=C/c3ncn(-c4ccc(OC(F)(F)F)cc4)n3)c(F)c2)c1` [F61, 1-(3-fluoro-4-((E)-2-(1-(4-(trifluoromethoxy)phenyl)-1H-1,2,4-triazol-3-yl)vinyl)phenyl)-3-((Z)-3-(2-isopropyl-5-methylphenyl)-4-oxothiazolidin-2-ylidene)urea], the mortality at 50 µg/cm2 in assay [1] and in assay [2] was 50 to 100% throughout.
